In one assay the test system is MV4-11. The assay can be described thus: Cell growth inhibitory test MV4-11 (WST-1). It counts as cell-based, human. The note with it: MV4-11 cells, 3 days culture. On the procedure:
Pharmacological Test Example 2
Cell Growth Inhibitory Test
MV4-11 (ATCC number: CRL-9591) as human leukemia cells was seeded in an amount of 3×10^3 using a DMEM medium containing 10% fetal calf serum (purchased from GIBCO) in a 96-well flat bottom plate.
(§1) A solution of a test compound in dimethyl sulfoxide was added to each well and was cultured in a 5% carbon dioxide incubator for 3 days. Three days after the initiation of the culture, 10 μl of a WST-1 solution in Cell Counting Kit (purchased from Wako Pure Chemical Industries, Ltd.) was added to each well for a color reaction. After proper color development, the absorbance was measured with a microplate reader under conditions of measurement wavelength 450 nm and reference wavelength 650 nm. The growth ratio for each well was determined by presuming the absorbance without the addition of the medicament to be 100% growth ratio and the absorbance of the well without seeding of the cells to be 0% growth ratio. The concentration of the test compound was varied on several levels, the cell growth ratio for each case was determined, and the concentration of the test compound necessary for inhibiting 50% of cell growth ratio (IC50) was calculated.
(Tetrazolium dyes change colour on reduction, which living cells bring about.)

Assay [1] relates to MOLM13. As to the kind of experiment: Cell growth inhibitory activities on cultured human leukemia cells MOLM-13 (WST-1). It counts as cell-based. Particulars: 3 days culture. As to the method: Pharmacological Test Example 4
Cell Growth Inhibitory Activities on Cultured Human Leukemia Cells
as §1, with “Human leukemia cells MOLM13 (subdivided from Hayashibara Biochemical Laboratories, Inc.) were seeded in an amount of 3×10^3 using a DMEM medium containing 10% fetal calf serum (purchased from GIBCO) in a 96-well flat bottom plate. A solution” for “A solution”

The test system of assay [2] is MOLM13. As to the kind of experiment: Cell growth inhibitory activity using MTT method (MOLM13). Type of assay: cell-based, human. Particulars: MOLM13 cells. On the procedure:
Pharmacological Test Example 3
Measurement of Cell Growth Inhibitory Activity Using MTT Method
Human leukemia cell line MOLM13 (subdivided from Hayashibara Biochemical Laboratories, Inc.) was cultured in an RPMI medium containing 10% fetal calf serum (purchased from Asahi Techno Glass Corporation) within a 5% carbon dioxide incubator until the cell density reached 50 to 90% of the maximum cell density. These cells were seeded into wells, containing an RPMI medium containing 10% fetal calf serum, in a 96-well flat bottom plate in an amount of […] per well. The amount of the solution of the medium in each well was brought to 100 μl, and a test compound was added thereto to 500 ng, 100 ng, 20 ng, and 4 ng per ml. After culture within an incubator for 72 hr, 10 μl of a 5 mg/ml MTT (3-(4,5-dimethylthiazol-2-yl)-2,5-diphenyl tetrazolium bromide) solution (purchased from SIGMA) was added to the medium, and a reaction was allowed to proceed for 4 hr. Thereafter, 100 μl of a 0.04 N hydrochloric acid-isopropanol solution was added to completely dissolve the resultant MTT formazan crystal. After the dissolution, absorbance at 550 nm was measured using 620 nm as a reference wavelength with a microplate reader (DIGISCAN) (It is regarded that, in the MTT method, the viable cell count is reflected, and linearity is observed in a cell count per well range of 5×10^5 to 2×10^2 cells). After 72 hr, the absorbance of only the medium free from cells was subtracted from the absorbance of the well without the addition of the test compound to determine a value which was presumed to be 100%. On the other hand, the absorbance with the addition of the compound was expressed in terms of % growth.

Molecules are shown by their SMILES. pIC50: −log10 of the molar value.

The text below walks through data of US20080207617A1, “Quinoline Derivatives and Quinazoline Derivatives Inhibiting Autophosphrylation of Flt3 and Medicinal Compositions Containing the Same” (KIRIN BEER KABUSHIKI KAISHA, priority 2002, published 2008).

By pIC50 is commonly meant the IC50 on a negative log10 scale, so that one unit is a factor of ten. High values mean a small IC50, low ones a large IC50. For orientation: IC50 means the concentration that gives 50% inhibition. A low value points to inhibition by little substance.

With `COc1cc2c(Oc3ccc(NC(=O)NCCC(C)(C)C)cc3)ccnc2cc1OCCCN1CC(C)CC(C)C1` (centres unmarked) [Compound 54, 1-(3,3-Dimethyl-butyl)-3-(4-{7-[3-(3,5-dimethyl-piperidin-1-yl)-propoxy]-6-methoxy-quinolin-4-yloxy}-phenyl)-urea], the pIC50 was 8.52 with MV4-11 (Homo sapiens, MV4-11, 72 h) and 7.71 in the assay with MOLM13 [2] (Homo sapiens, MOLM-13, 72 h). Also, half-maximal inhibition with MOLM13 [1] (Homo sapiens, MOLM-13, 72 h) (IC50) was put at 10 nM.
In the case of `COc1cc2c(Oc3ccc(NC(=O)NCCC4CCCCC4)c(F)c3)ccnc2cc1OCCN1CCOCC1` [Compound 72, 1-(2-Cyclohexyl-ethyl)-3-{2-fluoro-4-[6-methoxy-7-(2-morpholin-4-yl-ethoxy)-quinolin-4-yloxy]-phenyl}-urea], the pIC50 with MV4-11 (Homo sapiens, MV4-11, 72 h) was 8.52; in the assay on MOLM13 [2] (Homo sapiens, MOLM-13, 72 h), 7.26. Besides, half-maximal inhibition with MOLM13 [1] (Homo sapiens, MOLM-13, 72 h) (IC50) required 8 nM.
For `COc1cc2c(Oc3ccc(NC(=O)NCCC(C)(C)C)c(F)c3)ccnc2cc1OCCN1CCOCC1` [Compound 67, 1-(3,3-Dimethyl-butyl)-3-{2-fluoro-4-[6-methoxy-7-(2-morpholin-4-yl-ethoxy)-quinolin-4-yloxy]-phenyl}-urea], the values for the pIC50 in the assay with MV4-11 and in the assay with MOLM13 [2] (72 hr) were 8.70 and 7.79, respectively. Half-maximal inhibition with MOLM13 [1] (IC50) was put at 4 nM.
On to `COc1cc2c(Oc3ccc(NC(=O)NCCC(C)(C)C)c(Cl)c3)ccnc2cc1OCCCN1CCCCC1` [Compound 46, 1-{2-Chloro-4-[6-methoxy-7-(3-piperidin-1-yl-propoxy)-quinolin-4-yloxy]-phenyl}-3-(3,3-dimethyl-butyl)-urea], for which the pIC50 in the assay on MV4-11 (Homo sapiens, MV4-11, 72 h) is 6.84; with MOLM13 [2] (Homo sapiens, MOLM-13, 72 h), 7.11. In the assay with MOLM13 [1] (Homo sapiens, MOLM-13, 72 h), inhibition was half-maximal at 123 nM (IC50).
For `COc1cc2c(Oc3ccc(NC(=O)NC4CCCC(C)(C)C4)cc3F)ccnc2cc1OCCN1CCCCC1` (centres unmarked) [Compound 55, 1-(3,3-Dimethyl-cyclohexyl)-3-{3-fluoro-4-[6-methoxy-7-(2-piperidin-1-yl-ethoxy)-quinolin-4-yloxy]-phenyl}-urea], the pIC50 in the assay with MV4-11 (Homo sapiens, MV4-11, 72 h) is 8.22; with MOLM13 [2] (Homo sapiens, MOLM-13, 72 h), 7.43. This compound also registered an IC50 in the assay with MOLM13 [1] (Homo sapiens, MOLM-13, 72 h) of 25 nM.
For `COc1cc2nccc(Oc3ccc(NC(=O)NCCC(C)(C)C)cc3OC)c2cc1OC` [Compound 5, 1-[4-(6,7-Dimethoxy-quinolin-4-yloxy)-3-methoxy-phenyl]-3-(3,3-dimethyl-butyl)-urea], the pIC50 is 7.64 in the assay on MV4-11 (Homo sapiens, MV4-11, 72 h) and 7.03 in the assay with MOLM13 [2] (Homo sapiens, MOLM-13, 72 h). In addition, half-maximal inhibition with MOLM13 [1] (Homo sapiens, MOLM-13, 72 h) (IC50) was put at 36 nM.
Take `COc1cc2c(Oc3ccc(NC(=O)NC4CC(C)CC(C)(C)C4)cc3F)ccnc2cc1OCCN1CCCCC1` (centres unmarked) [Compound 56, 1-{3-Fluoro-4-[6-methoxy-7-(2-piperidin-1-yl-ethoxy)-quinolin-4-yloxy]-phenyl}-3-(3,3,5-trimethyl-cyclohexyl)-urea]: the pIC50 with MV4-11 (Homo sapiens, MV4-11, 72 h) was 7.85; in the assay on MOLM13 [2] (Homo sapiens, MOLM-13, 72 h), 7.95. The same compound had an IC50 in the assay on MOLM13 [1] (Homo sapiens, MOLM-13, 72 h) of 26 nM.
The matching figures for `COc1cc2c(Oc3ccc(NC(=O)NCCC(C)(C)C)cc3F)ccnc2cc1OCCN1C(C)CCCC1C` (centres unmarked) [Compound 62, 1-(3,3-Dimethyl-butyl)-3-(4-{7-[2-(2,6-dimethyl-piperidin-1-yl)-ethoxy]-6-methoxy-quinolin-4-yloxy}-3-fluoro-phenyl)-urea]: 8.40, 7.58 and 7 nM.
In the case of `COc1cc2c(Oc3ccc(NC(=O)NCCC(C)(C)C)c(Cl)c3)ccnc2cc1OCCCN1CCCC1` [Compound 45, 1-{2-Chloro-4-[6-methoxy-7-(3-pyrrolidin-1-yl-propoxy)-quinolin-4-yloxy]-phenyl}-3-(3,3-dimethyl-butyl)-urea], the pIC50 was 6.93 with MV4-11 (Homo sapiens, MV4-11, 72 h) and 6.59 with MOLM13 [2] (Homo sapiens, MOLM-13, 72 h). Also, the IC50 with MOLM13 [1] (Homo sapiens, MOLM-13, 72 h) came to 140 nM.
Turning to `COc1cc2c(Oc3ccc(NC(=O)NC4CCCC(C)(C)C4)c(F)c3)ccnc2cc1OCCN1CCOCC1` (centres unmarked) [Compound 69, 1-(3,3-Dimethyl-cyclohexyl)-3-{2-fluoro-4-[6-methoxy-7-(2-morpholin-4-yl-ethoxy)-quinolin-4-yloxy]-phenyl}-urea], the pIC50 was 8.70 in the assay with MV4-11 (Homo sapiens, MV4-11, 72 h) and 7.75 in the assay with MOLM13 [2] (Homo sapiens, MOLM-13, 72 h). Also, the IC50 in the assay with MOLM13 [1] (Homo sapiens, MOLM-13, 72 h) worked out at 8 nM.
For `COc1cc2c(Oc3ccc(NC(=O)NCCC4CCCCC4)cc3F)ccnc2cc1OCCN1CCCCC1` [Compound 58, 1-(2-Cyclohexyl-ethyl)-3-{3-fluoro-4-[6-methoxy-7-(2-piperidin-1-yl-ethoxy)-quinolin-4-yloxy]-phenyl}-urea], the pIC50 in the assay with MV4-11 (Homo sapiens, MV4-11, 72 h) is 8.40; with MOLM13 [2] (Homo sapiens, MOLM-13, 72 h), 7.29. The IC50 in the assay with MOLM13 [1] (Homo sapiens, MOLM-13, 72 h) was determined as 17 nM.
Regarding `COc1cc2nccc(Oc3ccc(NC(=O)NC4CCCCC4)cc3)c2cc1OC` [Compound 26, 1-Cyclohexyl-3-[4-(6,7-dimethoxy-quinolin-4-yloxy)-phenyl]-urea], the pIC50 in the assay on MV4-11 (Homo sapiens, MV4-11, 72 h) was 7.92; in the assay on MOLM13 [2] (Homo sapiens, MOLM-13, 72 h), 7.50. In the assay on MOLM13 [1] (Homo sapiens, MOLM-13, 72 h), this compound registered an IC50 of 18 nM.
Regarding `COc1cc2c(Oc3ccc(NC(=O)NCCC(C)(C)CO)c(F)c3)ccnc2cc1OCCN1CCCCC1` [Compound 63, 1-{2-Fluoro-4-[6-methoxy-7-(2-piperidin-1-yl-ethoxy)-quinolin-4-yloxy]-phenyl}-3-(4-hydroxy-3,3-dimethyl-butyl)-urea], the pIC50 with MV4-11 (Homo sapiens, MV4-11, 72 h) is 8.00; in the assay on MOLM13 [2] (Homo sapiens, MOLM-13, 72 h), 7.32. In the assay on MOLM13 [1] (Homo sapiens, MOLM-13, 72 h), this compound returned an IC50 of 22 nM.
The compound `COc1cc2c(Oc3ccc(NC(=O)NCCC(C)(C)C)cc3)ccnc2cc1OCCN1CCOCC1` [Compound 66, 1-(3,3-Dimethyl-butyl)-3-{4-[6-methoxy-7-(2-morpholin-4-yl-ethoxy)-quinolin-4-yloxy]-phenyl}-urea] showed a pIC50 with MV4-11 (Homo sapiens, MV4-11, 72 h) greater than 9.00. In addition, the IC50 with MOLM13 [1] (Homo sapiens, MOLM-13, 72 h) is less than 1 nM.
The matching figures for `CNC(=O)Nc1ccc(Oc2ccnc3cc(OC)c(OC)cc23)cc1` [Compound 27, 1-[4-(6,7-Dimethoxy-quinolin-4-yloxy)-phenyl]-3-methyl-urea]: 7.49 and 45 nM.
The corresponding values for `COc1cc2c(Oc3ccc(NC(=O)NCCC(C)(C)C)c(F)c3)ccnc2cc1OCCN1C(C)(C)CCCC1(C)C` [Compound 61, 1-(3,3-Dimethyl-butyl)-3-(2-fluoro-4-{6-methoxy-7-[2-(2,2,6,6-tetramethyl-piperidin-1-yl)-ethoxy]-quinolin-4-yloxy}-phenyl)-urea] are 7.24 and 138 nM.
The matching figures for `COc1cc2nccc(Oc3ccc(NC(=O)NCCC(C)C)cc3)c2cc1OC` [Compound 29, 1-[4-(6,7-Dimethoxy-quinolin-4-yloxy)-phenyl]-3-(3-methyl-butyl)-urea]: 9.00 and 3 nM.
Take `COc1cc2nccc(Oc3ccc(NC(=O)NCCN(C)C)cc3)c2cc1OC` [Compound 25, 1-[4-(6,7-Dimethoxy-quinolin-4-yloxy)-phenyl]-3-(2-dimethylamino-ethyl)-urea]: in the assay on MV4-11 (Homo sapiens, MV4-11, 72 h), the pIC50 was 7.18. The IC50 in the assay with MOLM13 [1] (Homo sapiens, MOLM-13, 72 h) worked out at 258 nM.
In the assay on MV4-11 (Homo sapiens, MV4-11, 72 h), `CCCNC(=O)Nc1ccc(Oc2ccnc3cc(OC)c(OC)cc23)cc1` [Compound 21, 1-[4-(6,7-Dimethoxy-quinolin-4-yloxy)-phenyl]-3-propyl-urea] gave a pIC50 of 7.51. Also, 22 nM corresponded to half-maximal inhibition with MOLM13 [1] (Homo sapiens, MOLM-13, 72 h) (IC50).
The matching figures for `COc1cc2nccc(Oc3ccc(NC(=O)NCCC(C)(C)C)c(C)c3)c2cc1OC` [Compound 2, 1-[4-(6,7-Dimethoxy-quinolin-4-yloxy)-2-methyl-phenyl]-3-(3,3-dimethyl-butyl)-urea]: 6.40 and 770 nM.
